According to patent US7902170B2, “Influenza virus binding, sialylated oligosaccharide substance and use thereof” (priority 2000, dated 2011):
“Also recorded” adds a separate entry of the source.

Test system: avian virus A/duck/Czechoslovakia/56, H4N6
Assay type: binding, avian influenza A virus (H4N6)

Substance	Binding of avian influenza virus HRP conjugate to glycolipid on TLC plate
NeuAcα3Galβ3GalNAcβ4(NeuAcα3)Galβ4GlcβCer [GD1a]	binding
NeuAcα3Galβ3GalNAcβ4(NeuAcα8NeuAcα3)Galβ4GlcβCer [GT1b]	binding
NeuAcα3Galβ4GlcNAcβ3Galβ4GlcβCer [S-3-PG]	binding; also recorded: bound
NeuAcα3Galβ4GlcβCer [GM3]	not observed
sulfatide	probably unspecific interaction
